The target of data set [1] is T1, 5-hydroxytryptamine receptor 2B (Homo sapiens, UniProt P41595). Kind of data set: Displacement of [3H]Mesulergine from human 5-HT2B receptor expressed in HEK293-EBNA cells by liquid scintillation counting. In kind it is cell-based. (In general: Loss of bound radioactivity is the signal in a displacement assay; it reports binding, not function.)
For data set [2], the system named is Mus musculus. Kind of data set: Reversal of 5-carboxamidotryptamine-incued hypothermia in po dosed ddY mouse measured after 60 mins of treatment. In kind it is functional. Particulars: 1 h, read-out: MED.
Data set [3] deals with T2, 5-hydroxytryptamine receptor 7 (Homo sapiens, UniProt P34969). The data set is described as follows: Displacement of [3H]HT from human 5-HT7 receptor expressed in CHO cells by liquid scintillation counting. In kind it is cell-based.
T2 sequence (P34969 whole entry): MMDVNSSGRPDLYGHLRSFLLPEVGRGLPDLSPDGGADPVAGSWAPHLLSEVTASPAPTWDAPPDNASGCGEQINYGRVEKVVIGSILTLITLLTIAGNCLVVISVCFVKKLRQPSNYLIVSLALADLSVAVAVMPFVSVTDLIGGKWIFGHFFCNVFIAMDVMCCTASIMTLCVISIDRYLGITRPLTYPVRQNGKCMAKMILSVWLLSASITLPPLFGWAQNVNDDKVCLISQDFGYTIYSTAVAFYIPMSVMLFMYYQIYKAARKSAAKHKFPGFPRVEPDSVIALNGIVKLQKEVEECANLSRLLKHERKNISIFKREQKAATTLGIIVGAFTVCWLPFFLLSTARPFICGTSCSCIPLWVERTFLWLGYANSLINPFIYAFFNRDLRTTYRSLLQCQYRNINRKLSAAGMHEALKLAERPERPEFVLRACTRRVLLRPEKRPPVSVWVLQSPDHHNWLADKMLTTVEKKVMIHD
Data set [4] has as its system Mus musculus. Kind of data set: Hypothermic effect in po dosed ddY mouse measured after 60 mins of treatment. It counts as ADME, organism-based. Particulars: in vivo, 1 h.
Data set [5] addresses T1, 5-hydroxytryptamine receptor 2B. The data set is described as follows: Inhibition of human 5-HT2B receptor expressed in HEK293-EBNA cells assessed as [3H]PI metabolism by liquid scintillation counting. It counts as cell-based.
Data set [6] has as its target D(2) dopamine receptor (Homo sapiens, UniProt P14416). The data set is described as follows: Binding affinity to dopamine D2 receptor (unknown origin).
The target in data set [7] is T3, Muscarinic acetylcholine receptor M1 (Homo sapiens, UniProt P11229).
T3 sequence (P11229 whole entry): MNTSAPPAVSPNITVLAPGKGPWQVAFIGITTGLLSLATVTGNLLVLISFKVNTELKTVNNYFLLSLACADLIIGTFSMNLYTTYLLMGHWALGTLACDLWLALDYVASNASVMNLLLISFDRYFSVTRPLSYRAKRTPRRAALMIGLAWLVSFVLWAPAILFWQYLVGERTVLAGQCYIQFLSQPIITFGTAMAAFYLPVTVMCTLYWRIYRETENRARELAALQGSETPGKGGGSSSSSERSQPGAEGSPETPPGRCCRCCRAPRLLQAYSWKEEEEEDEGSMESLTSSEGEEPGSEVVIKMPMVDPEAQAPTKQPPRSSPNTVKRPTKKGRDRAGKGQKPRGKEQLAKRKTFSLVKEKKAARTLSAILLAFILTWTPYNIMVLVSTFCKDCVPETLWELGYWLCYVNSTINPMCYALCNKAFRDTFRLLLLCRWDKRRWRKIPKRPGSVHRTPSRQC
Kind of data set: Binding affinity to muscarinic M1 receptor (unknown origin).

Data set [8] deals with Cavia porcellus. The data set is described as follows: Suppression of 5-HT-induced dural plasma protein extravasation in po dosed Hartley guinea pig after 16 hrs. It counts as functional, organism-based.
Data set [9] relates to Cavia porcellus. The data set is described as follows: Suppression of 5-HT-induced dural plasma protein extravasation in Hartley guinea pig at 30 mg/kg, po after 16 hrs. It counts as functional, organism-based. Set-up: dose 30 mg/kg.
The target in data set [10] is 5-hydroxytryptamine receptor 2A (Homo sapiens, UniProt P28223). The data set is described as follows: Binding affinity to 5-HT2A receptor (unknown origin).
Chain of 5-hydroxytryptamine receptor 2A (P28223 whole entry): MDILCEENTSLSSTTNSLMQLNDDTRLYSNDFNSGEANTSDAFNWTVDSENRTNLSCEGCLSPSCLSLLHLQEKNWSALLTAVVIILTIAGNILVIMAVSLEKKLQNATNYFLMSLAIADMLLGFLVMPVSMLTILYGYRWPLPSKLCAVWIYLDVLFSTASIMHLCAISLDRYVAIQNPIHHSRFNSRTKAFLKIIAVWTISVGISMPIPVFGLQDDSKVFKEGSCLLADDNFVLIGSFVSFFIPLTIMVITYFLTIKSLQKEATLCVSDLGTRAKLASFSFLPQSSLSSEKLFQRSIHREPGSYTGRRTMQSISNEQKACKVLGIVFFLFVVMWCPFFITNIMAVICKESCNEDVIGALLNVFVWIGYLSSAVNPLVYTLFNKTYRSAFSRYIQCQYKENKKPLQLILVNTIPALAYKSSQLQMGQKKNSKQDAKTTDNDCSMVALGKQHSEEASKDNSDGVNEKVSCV
Data set [11] addresses T4, Adrenergic receptor alpha-1 (Homo sapiens, UniProt P35348+P25100+P35368).
T4 sequence (P35348 whole entry): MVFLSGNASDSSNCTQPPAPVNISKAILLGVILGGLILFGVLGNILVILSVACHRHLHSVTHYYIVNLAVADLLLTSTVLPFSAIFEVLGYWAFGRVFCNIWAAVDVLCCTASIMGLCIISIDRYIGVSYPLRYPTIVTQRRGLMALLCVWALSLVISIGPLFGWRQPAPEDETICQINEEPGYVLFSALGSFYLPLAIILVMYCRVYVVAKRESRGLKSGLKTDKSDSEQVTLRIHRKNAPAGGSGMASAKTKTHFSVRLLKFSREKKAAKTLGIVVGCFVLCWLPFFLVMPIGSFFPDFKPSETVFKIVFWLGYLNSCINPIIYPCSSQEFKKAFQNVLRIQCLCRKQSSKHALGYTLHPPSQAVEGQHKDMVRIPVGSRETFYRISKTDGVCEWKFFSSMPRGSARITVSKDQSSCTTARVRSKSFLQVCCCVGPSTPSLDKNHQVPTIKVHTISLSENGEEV
T4 sequence (P25100 whole entry): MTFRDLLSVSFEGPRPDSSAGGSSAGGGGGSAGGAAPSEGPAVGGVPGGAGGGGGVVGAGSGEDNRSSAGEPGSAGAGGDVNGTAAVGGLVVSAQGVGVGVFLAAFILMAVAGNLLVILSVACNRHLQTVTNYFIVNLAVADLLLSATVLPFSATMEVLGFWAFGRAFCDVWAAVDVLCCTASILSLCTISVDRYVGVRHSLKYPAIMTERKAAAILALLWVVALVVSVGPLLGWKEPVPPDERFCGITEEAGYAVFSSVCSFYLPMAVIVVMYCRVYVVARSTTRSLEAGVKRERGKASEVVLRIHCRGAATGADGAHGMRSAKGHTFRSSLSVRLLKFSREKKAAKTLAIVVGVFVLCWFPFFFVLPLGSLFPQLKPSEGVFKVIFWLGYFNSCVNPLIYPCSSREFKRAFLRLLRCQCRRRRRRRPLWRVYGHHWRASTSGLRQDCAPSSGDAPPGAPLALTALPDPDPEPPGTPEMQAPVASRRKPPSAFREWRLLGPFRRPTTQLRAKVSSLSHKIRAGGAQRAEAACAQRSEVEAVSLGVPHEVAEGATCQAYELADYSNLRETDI
T4 sequence (P35368 whole entry): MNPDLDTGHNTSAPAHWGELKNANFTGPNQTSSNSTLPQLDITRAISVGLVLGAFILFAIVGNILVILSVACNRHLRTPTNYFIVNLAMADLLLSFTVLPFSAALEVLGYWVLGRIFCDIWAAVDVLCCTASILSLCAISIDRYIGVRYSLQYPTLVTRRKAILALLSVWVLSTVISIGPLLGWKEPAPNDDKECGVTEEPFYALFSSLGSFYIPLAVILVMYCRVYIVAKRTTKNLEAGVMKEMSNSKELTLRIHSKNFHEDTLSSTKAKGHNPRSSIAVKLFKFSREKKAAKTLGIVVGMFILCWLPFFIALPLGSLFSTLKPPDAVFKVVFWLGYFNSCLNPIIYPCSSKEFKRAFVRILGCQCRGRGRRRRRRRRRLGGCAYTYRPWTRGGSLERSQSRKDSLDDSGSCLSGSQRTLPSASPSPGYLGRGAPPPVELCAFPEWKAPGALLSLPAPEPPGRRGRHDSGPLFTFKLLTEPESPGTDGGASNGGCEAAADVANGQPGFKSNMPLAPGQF
Kind of data set: Binding affinity to alpha-1 adrenergic receptor (unknown origin).

Data set [12] has as its target T2, 5-hydroxytryptamine receptor 7. Kind of data set: Inhibition of human 5-HT7 receptor expressed in CHO cells assessed as cAMP production by EIA system. It counts as functional, cell-based. On the technique in general: cAMP levels reflect the balance of adenylyl cyclase and phosphodiesterase activity.
The target of data set [13] is T5, 5-hydroxytryptamine receptor 2C (Homo sapiens, UniProt P28335).
T5 sequence (P28335 whole entry): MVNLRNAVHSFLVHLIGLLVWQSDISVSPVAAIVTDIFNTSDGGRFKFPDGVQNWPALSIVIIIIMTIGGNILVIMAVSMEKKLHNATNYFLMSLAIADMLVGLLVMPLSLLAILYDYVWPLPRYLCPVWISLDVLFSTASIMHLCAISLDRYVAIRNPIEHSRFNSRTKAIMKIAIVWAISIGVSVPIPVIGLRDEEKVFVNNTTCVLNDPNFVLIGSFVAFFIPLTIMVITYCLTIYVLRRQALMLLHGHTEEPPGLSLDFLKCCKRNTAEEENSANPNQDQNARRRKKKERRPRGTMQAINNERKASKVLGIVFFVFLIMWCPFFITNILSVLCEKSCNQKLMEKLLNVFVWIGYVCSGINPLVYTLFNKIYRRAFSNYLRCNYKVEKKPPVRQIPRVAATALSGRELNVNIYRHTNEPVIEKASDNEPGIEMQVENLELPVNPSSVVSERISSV
Kind of data set: Binding affinity to 5-HT2C receptor (unknown origin).

What is called pKi is the negative decadic logarithm of the Ki, by convention in mol/L. Low readings indicate a large Ki, high ones a small Ki. What is called pIC50 is the negative decadic logarithm of the IC50, by convention in mol/L. By Ki is commonly meant a dissociation constant, usually derived from enzyme kinetics or from competition with a known ligand.

pIC50, pKi: −log10 of the molar value. Calls of active or inactive are those of the source. No cut-off for these calls is given here.

T1 sequence (P41595 whole entry): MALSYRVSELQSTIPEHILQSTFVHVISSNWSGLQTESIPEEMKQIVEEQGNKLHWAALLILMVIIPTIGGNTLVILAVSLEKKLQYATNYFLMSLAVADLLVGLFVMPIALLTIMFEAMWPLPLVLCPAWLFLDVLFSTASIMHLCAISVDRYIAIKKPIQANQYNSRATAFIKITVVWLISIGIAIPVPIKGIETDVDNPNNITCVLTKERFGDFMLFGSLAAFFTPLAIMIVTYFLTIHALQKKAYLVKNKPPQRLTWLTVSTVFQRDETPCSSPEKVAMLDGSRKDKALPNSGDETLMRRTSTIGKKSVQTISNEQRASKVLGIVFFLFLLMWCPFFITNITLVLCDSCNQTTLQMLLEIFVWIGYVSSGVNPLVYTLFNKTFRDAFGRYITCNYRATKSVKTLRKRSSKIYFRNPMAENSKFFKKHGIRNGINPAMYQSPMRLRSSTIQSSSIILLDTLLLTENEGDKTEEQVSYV
Chain of D(2) dopamine receptor (P14416 whole entry): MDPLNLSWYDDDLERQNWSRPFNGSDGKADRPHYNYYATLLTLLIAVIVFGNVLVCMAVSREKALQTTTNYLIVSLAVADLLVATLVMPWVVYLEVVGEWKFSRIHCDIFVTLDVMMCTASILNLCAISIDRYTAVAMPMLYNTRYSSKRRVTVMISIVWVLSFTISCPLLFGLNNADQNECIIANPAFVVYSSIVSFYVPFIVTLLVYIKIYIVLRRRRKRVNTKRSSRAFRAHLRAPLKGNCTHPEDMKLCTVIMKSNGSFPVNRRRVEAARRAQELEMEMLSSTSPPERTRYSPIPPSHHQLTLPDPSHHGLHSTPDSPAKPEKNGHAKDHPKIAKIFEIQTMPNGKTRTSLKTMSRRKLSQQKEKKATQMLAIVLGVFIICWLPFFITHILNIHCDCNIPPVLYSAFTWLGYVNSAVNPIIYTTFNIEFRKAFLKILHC

In the case of `CCc1cccc2c1-c1ccc(C(=O)N=C(N)N)cc1C2(C)O.Cl` (stereo not given), the negative logarithm of the Ki (pKi) in [1] is 9.15; in [3], 8.64. Moreover, the minimal effective dose in data set [2] was greater than 30 mg/kg.

Regarding `CCc1cccc2c1-c1ccc(C(=O)N=C(N)N)cc1C2O` (stereo not given), the pKi in data set [1] was 8.80; in [3], 8.39. For the same molecule, the minimal effective dose in data set [2] was greater than 30 mg/kg.

For `NC(N)=NC(=O)c1ccc2c(c1)C(N)c1ccccc1-2` (stereo not given), the pKi in data set [1] was 7.74; in data set [3], 7.37.

Regarding `CC1c2ccccc2-c2ccc(C(=O)N=C(N)N)cc21.Cl` (stereo not given), the figures for the pKi in [1] and in data set [3] were 8.36 and 8.39, respectively. Moreover, the Activity result in data set [4] was “Toxic”.

As for `NC(N)=NC(=O)c1ccc2c(c1)C(O)c1c(Cl)cccc1-2` (stereo not given), the pKi was 9.96 in data set [1] and 7.48 in data set [3].

As for `CC1(O)c2ccccc2-c2ccc(C(=O)N=C(N)N)cc21.Cl` (stereo not given), the negative logarithm of the Ki (pKi) in data set [1] is 8.37; in [6] it was less than 6.00; in [7], less than 6.00; in data set [3], 8.37; in data set [10], less than 6.00; in [13] it was 6.41. Also, the minimal effective dose in data set [2] is 30 mg/kg. The pIC50 in data set [5] is 7.28; in data set [12], 7.23. Also, the inhibition result in [8] was “Dose-dependent effect”. Moreover, the inhibition result in data set [9] was “Active”. The same molecule gave a Ki in data set [11] greater than 1000 nM.

For `Cc1cccc2c1-c1ccc(C(=O)N=C(N)N)cc1C2O.Cl` (stereo not given), the pKi in data set [1] was 9.09; in data set [3] it was 7.85. Also, the Activity result in data set [4] was “Toxic”.

As for `Cc1cccc2c1C(O)c1cc(C(=O)N=C(N)N)ccc1-2` (stereo not given), the values for the pKi in [1] and in data set [3] were 9.17 and 7.06, respectively.

Turning to `NC(N)=NC(=O)c1ccc2c(c1)C(O)c1ccccc1-2` (stereo not given), in [2], the minimal effective dose was greater than 30 mg/kg.

For `NC(N)=NC(=O)c1ccc2c(c1)C(O)c1cc(Cl)ccc1-2` (stereo not given), the pKi was 8.77 in data set [1] and less than 6.00 in data set [3].

For `NC(N)=NC(=O)c1ccc2c(c1)C(O)c1cccc(CO)c1-2` (stereo not given), the results for the pKi in data set [1] and in [3] were 8.18 and 7.39, respectively.

Consider `CC(=O)NC1c2ccccc2-c2ccc(C(=O)N=C(N)N)cc21` (stereo not given), for which the pKi was 7.47 in data set [1] and 6.74 in [3].

In the case of `Cc1cccc2c1-c1ccc(C(=O)N=C(N)N)cc1C2(C)O.Cl` (stereo not given), the pKi was 8.96 in data set [1] and 8.40 in data set [3]. Further, the minimal effective dose in data set [2] was greater than 30 mg/kg.

For the molecule `NC(N)=NC(=O)c1ccc2c(c1)C(O)c1cccc(Cl)c1-2` (stereo not given), the pKi is 8.82 in data set [1] and 7.39 in [3].

For `NC(N)=NC(=O)c1ccc2c(c1)C(O)c1cccc(F)c1-2` (stereo not given), the results for the negative-log Ki (pKi) in data set [1] and in [3] were 9.04 and 7.54, respectively.

`N=C(N)NC(=O)c1ccc2c(c1)C(F)c1ccccc1-2` (stereo not given): the values for the pKi in [1] and in data set [3] were 9.05 and 7.24, respectively.

In the case of `NC(N)=NC(=O)c1ccc2c(c1)C(O)c1ccc(Cl)cc1-2` (stereo not given), the pKi in data set [1] is 7.96; in [3] it was 6.80.

For the molecule `COCc1cccc2c1-c1ccc(C(=O)N=C(N)N)cc1C2O` (stereo not given), the pKi in [1] was 8.20; in data set [3] it was 7.30.

The values are drawn from ChEMBL document CHEMBL3352264, “Synthesis and structure-activity relationships of new carbonyl guanidine derivatives as novel dual 5-HT₂B and 5-HT₇ receptor antagonists. Part 2” (Bioorg Med Chem, 2014).
